Source: PMC7126098 (Bioorganic & Medicinal Chemistry, 2019)
Blank lines part the entries; values can stand above or below the compound they belong to.

How the values were obtained:
[1] = tested on: eight human cancer cell lines; test: Cytostatic activity against panel of human cell lines; assay type: cell-based; conditions: for IC50: Homo sapiens, read-out: cytostatic activity (IC50 range over cell lines)
[2] = tested on: herpes simplex virus-2 (G strain); test: Inhibition of virus-induced cytopathicity, HSV-2; assay type: cell-based; conditions: Human alphaherpesvirus 2, HEL, read-out: EC50 HSV-2
[3] = tested on: herpes simplex virus-1 (KOS strain); test: Inhibition of virus-induced cytopathicity, HSV-1; assay type: cell-based; conditions: anti-HSV screening in HEL cells
[4] = Stability towards light and air; assay type: physicochemical
[5] = tested on: human cytomegalovirus (HCMV) (AD-169 strain and Davis strain); test: Inhibition of virus-induced cytopathogenicity, HCMV in HEL cells; assay type: cell-based
[6] = tested on: pancreatic adenocarcinoma Capan-1 cell line; test: Cytostatic activity against Capan-1; assay type: cell-based, human
HSV-1 TK = conditions: relative to ACV; cited from earlier work
cell culture = conditions: at concentrations up to 100 µg/mL; cited from earlier work

SMILES: O=c1c2ncn(CCCCO)c2nc2[nH]c(-c3ccc(C(F)(F)F)cc3)cn12 [10e, 3-(4-Hydroxybutyl)-6-(4-(trifluoromethyl)phenyl)-3,5-dihydro-9H-imidazo[1,2-a]purin-9-one]
cytostatic activity (in words) ([1]; range of cancer cell lines): most effective

EC50 [2]: 28 to 40.9 µM
SMILES: O=c1c2ncn(CCC(CO)CO)c2nc2[nH]c(-c3ccc4c(c3)OCO4)cn12 [9i, 6-(Benzo[d][1,3]dioxol-5-yl)-3-(4-hydroxy-3-(hydroxymethyl)butyl)-3,5-dihydro-9H-imidazo[1,2-a]purin-9-one]

IC50 [1]: 16.9 to 90.4 µM
SMILES: O=c1c2ncn(CCC(CO)CO)c2nc2[nH]c(-c3ccc(Oc4ccccc4)cc3)cn12 [9j, 3-(4-Hydroxy-3-(hydroxymethyl)butyl)-6-(4-phenoxyphenyl)-3,5-dihydro-9H-imidazo[1,2-a]purin-9-one]
antiviral activity (in words) [3]: inactive

stability towards light and air [4]: stable enough to be collected safely
SMILES: O=c1c2ncn(CCCCO)c2nc2[nH]c(-c3cccs3)cn12 [10h, 3-(4-Hydroxybutyl)-6-(thiophen-2-yl)-3,5-dihydro-9H-imidazo[1,2-a]purin-9-one]

SMILES: O=c1c2ncn(CCC(CO)CO)c2nc2[nH]c(-c3ccccc3)cn12 [9a, 3-(4-Hydroxy-3-(hydroxymethyl)butyl)-6-phenyl-3,5-dihydro-9H-imidazo[1,2-a]purin-9-one]
antiviral activity (in words) [3]: inactive

SMILES: Nc1nc2c(ncn2CCCCO)c(=O)[nH]1 [HBG, hydroxybutylguanine]
activity against HCMV (in words) [5]: inactive | inhibition of proliferation of Capan-1 (in words) [6]: slightly inhibited | affinity for HSV-1 TK (in words) (HSV-1 TK): higher affinity for HSV-1 TK than ACV

SMILES: O=c1c2ncn(CCC(CO)CO)c2nc2[nH]c(-c3ccc(Cl)cc3)cn12 [9c, 6-(4-Chlorophenyl)-3-(4-hydroxy-3-(hydroxymethyl)butyl)-3,5-dihydro-9H-imidazo[1,2-a]purin-9-one]
antiviral activity (in words) [3]: inactive

EC50 [2]: 28 to 40.9 µM | IC50 [1]: 12.5 to 76.1 µM
SMILES: O=c1c2ncn(CCC(CO)CO)c2nc2[nH]c(-c3ccc(C(F)(F)F)cc3)cn12 [9e, 3-(4-Hydroxy-3-(hydroxymethyl)butyl)-6-(4-(trifluoromethyl)phenyl)-3,5-dihydro-9H-imidazo[1,2-a]purin-9-one]

EC50 [2]: 28 to 40.9 µM
SMILES: O=c1c2ncn(CCC(CO)CO)c2nc2[nH]c(-c3ccc(F)cc3)cn12 [9b, 6-(4-Fluorophenyl)-3-(4-hydroxy-3-(hydroxymethyl)butyl)-3,5-dihydro-9H-imidazo[1,2-a]purin-9-one]

SMILES: Nc1nc2c(ncn2CCC(CO)CO)c(=O)[nH]1 [PCV, penciclovir]
activity against HCMV (in words) [5]: not inhibitory | inhibition of proliferation of Capan-1 (in words) [6]: slightly inhibited | toxicity in cell culture (cell culture): did not exhibit any toxicity

SMILES: Cc1ccc(-c2cn3c(=O)c4ncn(CCC(CO)CO)c4nc3[nH]2)cc1 [9d, 3-(4-Hydroxy-3-(hydroxymethyl)butyl)-6-(p-tolyl)-3,5-dihydro-9H-imidazo[1,2-a]purin-9-one]
antiviral activity (in words) [3]: inactive
